Several values for one entry are separate records, joined by “and”; a condition that tells them apart may be missing. Equal values may be shown once. Where a name gives a salt, the structure may show the parent alone. Read-outs that look alike come from different tables or passages of the source.
Tests used:
[1] = Method: (§1) Either pig skin or human cadaver skin was used. It was placed in the cell dermal side down.
(§2) The receptor solution completely filled the receptor compartment.
(§3) All skin was stored frozen.
(§4) Each experiment consisted of three phases totaling 66 hours. […]
(§5) The injection volume was 10 »l.

Remark: listed apart in the source
[2] = Iontophoretic drug delivery through skin in vertical flow-through diffusion cell, HPLC of receptor solution (human skin); assay type: in vitro ADME; conditions: oxymorphone, 0 mg/ml oleic acid (control)
Method: as §1, §2, §3, §4, §5
Tests with enhancer may be compared to the control delivery rate with no oleic acid and using human skin. Tests summarized in Table 4 were done using oxymorphone in the donor compartment.

[3] = delivery of HM-HCl 0.1M, enhancer 100 mg/ml (10.0%), E/W 60/40, current 1 mA

CCCCCCCCCC(=O)O [Capric acid, decanoic acid]
Enhancement Factor [1, 3]: 3.9

CCCCCCCC(=O)O [Caprylic acid, octanoic acid]
Enhancement Factor ([1]; delivery of HM-HCl 0.1M, enhancer 100 mg/ml (10.0%), E/W 48/52, current 1 mA): 3.6

CCCCCCCCCCCC(=O)O [Lauric acid, dodecanoic acid]
Steady State Delivery Rate ± sd [1]: 4838 ± 766 µg/h | Enhancement Factor [1, 3]: 4.0

CCCCCCCC/C=C\CCCCCCCC(=O)O [Oleic acid, cis-9-octadecenoic acid]
Enhancement Factor ([1]; oleic acid 50 mg/ml (5%), solvent PG/E/W (30/45/20)): 4.3 | Enhancement Factor ([1]; oleic acid 50 mg/ml (5%), solvent PG/E/W (65/20/10)): 2.5 | steady state (phase II) delivery rate (Scheme B: 1% oleic acid + drug in passive phase I, phase II 0.1 M HM.HCl in DI W without enhancer, current on, pig skin): 2163 ± 354 »g/hr | delivery by the end of phase I (Scheme B: passive phase I (18 h, current off), 1% oleic acid + 0.1 M HM.HCl in E/W 67/33, pig skin): approximately 1800 »g/hr | Enhancement Factor (delivery of HM-HCl 0.1M, enhancer 10 mg/ml (1.0%), E/W 67/33, current 1 mA): 4.3 | Enhancement Factor (delivery of Oxy-HCl 0.1M, enhancer 5 mg/ml (0.5%), E/W 67/33, current 1 mA, ratio of steady state rates with and without enhancer): 4.7 | Enhancement Factor (delivery of oxymorphone-HCl, oleic acid 0.25 mg/ml (0.025%), E/W 48/52, 1 mA, pig skin): 0 | Enhancement Factor (delivery of oxymorphone-HCl, oleic acid 0.50 mg/ml (0.050%), E/W 48/52, 1 mA, pig skin): 1.3 | Enhancement Factor (delivery of oxymorphone-HCl, oleic acid 1.0 mg/ml (0.10%), E/W 52/48, 1 mA, pig skin): 1.9 | Enhancement Factor (delivery of oxymorphone-HCl, oleic acid 2.0 mg/ml (0.20%), E/W 56/44, 1 mA, pig skin): 3.2 | Enhancement Factor (delivery of oxymorphone-HCl, oleic acid 2.5 mg/ml (0.25%), E/W 56/44, 1 mA, pig skin, two identical tests on different days): 4.2 and 4.5 | Enhancement Factor (delivery of oxymorphone-HCl, oleic acid 5.0 mg/ml (0.50%), E/W 67/33, 1 mA, pig skin): 4.7

CN1CC[C@]23c4c5ccc(O)c4O[C@H]2C(=O)CC[C@@]3(O)[C@H]1C5 [Oxy-HCl, oxymorphone hydrochloride]
Steady State Delivery Rate ± sd ([1]; Oxy-HCl 0.1M, no enhancer, E/W 67/33, current 1 mA): 1202 ± 133 µg/h | typical iontophoretic steady state delivery rate ([1]; current of 1 mA, without the addition of a fatty acid, human skin or pig skin): about 1200 »g/hr | Steady State Delivery Rate ± sd ([2]; current 0 mA): 27 ± 25 µg/h | Steady State Delivery Rate ± sd ([2]; current 0.25 mA): 228 ± 55 µg/h | Steady State Delivery Rate ± sd ([2]; current 0.50 mA): 542 ± 62 µg/h | Steady State Delivery Rate ± sd ([2]; current 0.75 mA): 910 ± 117 µg/h | Steady State Delivery Rate ± sd ([2]; current 1.0 mA): 1024 ± 276 µg/h

— patent EP0525063B1, “Use of specific fatty acids in the manufacture of a medicament for their Iontophoresis delivery” (priority 1990, dated 1991)
